From PubChem BioAssay AID1963838 (Molecular Pharmacology Branch, DTP, NCI, 2024)

Tested on: 855422-203-R-J1-PDC complex spheroid viability
Assay: Anticancer human tumor 855422-203-R-J1-PDC patient-derived bladder carcinoma cell line growth inhibition [POLQ]
Conditions: for IC50: curve of first compound; for viability, T/C: stronger effect = lower value
In short: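 PDC + HUVEC + MSC complex spheroids; POLQ inhibitors ± partner drugs; top conc. at/near clinical Cmax, else 10 microM (SN-38 1 microM), half-log dilutions; 37 degrees C, 5% CO2.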
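Also: spheroids exposed to compounds for seven days before readout.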

Which results are given for `CCc1cc2c(N3CCc4c(cc(Cn5ccnc5)cc4-c4cn(C)nc4C(F)(F)F)C3=O)cc(C)nc2c(OC)n1` + Nc1ccc(C#CCN(C(=O)Cc2ncc(C(F)(F)F)cc2C(F)(F)F)c2ccc(F)cc2)nn1?
IC50 (second compound 0.0316 µM): 6 µM; IC50 (second compound 0.1 µM): 5.3 µM; IC50 (second compound 0.316 µM): 5.49 µM; IC50 (second compound 1 µM): 6.4 µM; IC50 (second compound 3.16 µM): 5.25 µM; IC50 (second compound 10 µM): 3.47 µM; viability, T/C (second compound 0.0316 µM, first compound 0.0316 µM): 133%; viability, T/C (second compound 0.0316 µM, first compound 0.1 µM): 120%; viability, T/C (second compound 0.0316 µM, first compound 0.316 µM): 119%; viability, T/C (second compound 0.0316 µM, first compound 1 µM): 93.5%; viability, T/C (second compound 0.0316 µM, first compound 3.16 µM): 66.3%; viability, T/C (second compound 0.0316 µM, first compound 10 µM): 37.1%; viability, T/C (second compound 0.1 µM, first compound 0.0316 µM): 131%; viability, T/C (second compound 0.1 µM, first compound 0.1 µM): 138%; viability, T/C (second compound 0.1 µM, first compound 0.316 µM): 127%; viability, T/C (second compound 0.1 µM, first compound 1 µM): 96%; viability, T/C (second compound 0.1 µM, first compound 3.16 µM): 63.5%; viability, T/C (second compound 0.1 µM, first compound 10 µM): 35.5%; viability, T/C (second compound 0.316 µM, first compound 0.0316 µM): 114%; viability, T/C (second compound 0.316 µM, first compound 0.1 µM): 138%; viability, T/C (second compound 0.316 µM, first compound 0.316 µM): 108%; viability, T/C (second compound 0.316 µM, first compound 1 µM): 95.8%; viability, T/C (second compound 0.316 µM, first compound 3.16 µM): 61.5%; viability, T/C (second compound 0.316 µM, first compound 10 µM): 37.4%; viability, T/C (second compound 1 µM, first compound 0.0316 µM): 111%; viability, T/C (second compound 1 µM, first compound 0.1 µM): 121%; viability, T/C (second compound 1 µM, first compound 0.316 µM): 111%; viability, T/C (second compound 1 µM, first compound 1 µM): 92.2%; viability, T/C (second compound 1 µM, first compound 3.16 µM): 71.5%; viability, T/C (second compound 1 µM, first compound 10 µM): 37.1%; viability, T/C (second compound 3.16 µM, first compound 0.0316 µM): 110%; viability, T/C (second compound 3.16 µM, first compound 0.1 µM): 118%; viability, T/C (second compound 3.16 µM, first compound 0.316 µM): 133%; viability, T/C (second compound 3.16 µM, first compound 1 µM): 92.5%; viability, T/C (second compound 3.16 µM, first compound 3.16 µM): 61.2%; viability, T/C (second compound 3.16 µM, first compound 10 µM): 38.6%; viability, T/C (second compound 10 µM, first compound 0.0316 µM): 116%; viability, T/C (second compound 10 µM, first compound 0.1 µM): 115%; viability, T/C (second compound 10 µM, first compound 0.316 µM): 98%; viability, T/C (second compound 10 µM, first compound 1 µM): 77.4%; viability, T/C (second compound 10 µM, first compound 3.16 µM): 52.2%; viability, T/C (second compound 10 µM, first compound 10 µM): 31.7%
